From article PMC10252837, “A Novel Time-Resolved Fluorescence Resonance Energy Transfer Assay for the Discovery of Small-Molecule Inhibitors of HIV-1 Tat-Regulated Transcription” (International Journal of Molecular Sciences, 2023)
Where two headings read alike, the source gives them in different places.

Assays:
HIV-1NL4-3 = test: HIV-1 infectivity in TZM-bl cells (LTR-driven F-Luc); format: cell-based; conditions: for IC50: read-out: IC50 of Infectivity
Method: (§1) (A) (Upper panel) Doxycycline (Dox)-inducible Tat-expressing bl-DTR cells cultured in 96-well plates treated with two-fold serial dilutions of each compound in the presence of Dox (50 ng/mL). At 24 h after treatment, the activity of firefly luciferase (F-Luc), indicating Tat activity, was determined as described in the Materials and Methods section. (Bottom panel) TZM-bl cells were treated with two-fold serial dilutions of the indicated compound and then infected with the HIV-1NL4-3 strain at a multiplicity of infection (MOI) of 1. At 24 h after infection, the viral infectivity and cell viability were determined as described in the Materials and Methods section. […] (B) 2 × 10^5 TZM-bl cells growing in 6-well plates were infected with HIV-1 (MOI = 1), transfected with a Tat-expressing plasmid (2 μg) or treated with PMA ([…]) upon indicated compounds at indicated concentrations, respectively. At 24 h after treatment, LTR promoter activity was determined via a Bright-Glo Luciferase Assay Kit. The relative activities are represented as the mean ± SD (n = 3) compared with the DMSO vesicle. (C) The biotinylated TAR RNA (2 nM) was incubated with ARM peptide (100 nM) in the presence of increasing amounts of the hit compound and separated on a 3–12% native polyacrylamide gel. The mobility of biotinylated TAR RNA was detected by chemiluminescence.
(§2) To determine the inhibitory effect of hit compounds on HIV-1 infection, we used TZM-bl cells (also referred to as JC53BL-13), which express HIV-1 receptors and contain the LTR-driven F-Luc gene controlled by HIV-1 infection, as described previously but with some minor modifications. Briefly, 1 × 10^4 TZM-bl cells cultured on 96-well plates were treated in triplicate wells with 1:2 serially diluted compounds at concentrations ranging from 0 to 12.5 µM. Subsequently, the cells were infected with HIV-1NL4-3 virus obtained from the transfection of 293T cells at a multiplicity of infection (MOI) of 1. At 24 h after infection, the inhibitory effect of the hit compounds on infectivity was determined using the Bright-Glo Luciferase Assay Kit (Promega). The dose–response data are expressed as a relative percentage compared to the DMSO control (vehicle). The inhibitory effects of the hit compounds on HIV-1 replication were determined as previously described. Briefly, 4 × 10^5 PBMCs pre-activated with phytohemagglutinin M (PHA-M) were washed with fresh media and then infected with HIV-1NL4-3 or HIV-1AD8 at an MOI of 0.1 by spinoculation for 2 h. After infection, the cells were treated with hit compounds at the indicated concentrations at 3–5 days after treatment, and the inhibitory effect of hit compounds on viral replication was determined by the titration of virions from the cell supernatant using a p24 […]™ Assay Kit (PerkinElmer) according to the manufacturer’s instructions. Cell viability was determined using resazurin-based PrestoBlue™ cell viability reagent (Thermo Fisher Scientific, Waltham, MA, USA) according to the manufacturer’s instructions. The data are presented as relative percentages compared to the DMSO control (vehicle). The experiments were performed in triplicate.

[1] = system: Tat activity (Tat-induced viral transcription); test: microbe, parasite or virus in culture; format: cell-based, HIV-1; conditions: for IC50: read-out: IC50 of Tat Activity
Method: as §1
The inhibitory effect of hit compounds on Tat-mediated transcription was determined using doxycycline (Dox)-inducible Tat-expressing TZM-bl cells that express the LTR-driven firefly luciferase (F-Luc) gene under the control of Tat upon Dox treatment, as described previously but with minor modifications. In brief, 1 × 10^4 of the cells were cultured in 96-well plates, treated with compounds at a concentration of 10 µM (in the second round of screening), and then treated with Dox (final concentration: 50 ng/mL). After 24 h, the inhibitory effect of the hit compounds on Tat activity was determined by measuring F-Luc activity using a Bright-Glo Luciferase Assay Kit (Promega, Madison, WI, USA). For the dose–response assay, cells cultured in 100 μL medium were treated with 50 μL of 1:2 serially diluted compounds at concentrations ranging from 0 to 12.5 µM and then treated with 50 μL of Dox (final concentration: 50 ng/mL). At 24 h post-treatment, the F-Luc activity was determined as described above. All luminescence assays were carried out in a SpectraMax Paradigm Microplate Reader (Molecular Devices, San Jose, CA, USA), and the data were expressed as a relative percentage (%) compared to the DMSO control (vehicle) in the presence of Dox. The experiments were performed in triplicate.

HIV-1NL4-3 (X4-tropic) = test: HIV-1 replication assay in PBMCs (p24), HIV-1NL4-3; format: cell-based; conditions: PHA-preactivated PBMCs, MOI 0.1, 72 h; 460-G06 at 12.5-100 nM
Method: (§3) Figure 6 Phytohemagglutinin-preactivated peripheral blood mononuclear cells were infected with HIV-1NL4-3 (A) or HIV-1AD8 (B) at an MOI of 0.1 for 2 h and then treated with compounds at indicated concentrations for 72 h. […] The data are expressed as the mean ± SD (n = 3). * p < 0.05 indicates a comparison with the cells treated with DMSO (vehicle). ARVs, anti-retroviral drugs; EFV, efavirenz; DOL, dolutegravir; AZT, azidothymidine.
(§4) The experiments were performed in triplicate.

TAR RNA = test: RNA gel mobility shift assay (biotinylated TAR RNA and ARM peptide); format: binding, HIV-1; conditions: 2 nM biotinylated TAR RNA, 100 nM ARM peptide
Method: To determine the inhibitory effect of hit compounds on the Tat (ARM)-TAR RNA interaction, a gel shift assay was carried out using the LightShift Chemiluminescent RNA EMSA Kit (Thermo Scientific) according to the manufacturer’s instructions, but with minor modifications suitable for our experiment. Briefly, 2 nM of 5′-biotinylated TAR RNA (nt 31) and 100 nM of ARM peptide were incubated with increasing amounts of hit compounds in the 1× REMSA binding buffer (10 mM HEPES pH 7.5, 10 mM MgCl2, 5 mM KCl, 1 mM DTT, and v/v 5 % glycerol) supplemented with 8 units/reaction of RNase OUT (Invitrogen) (final: 20 µL) at 20 °C for 20 min. Subsequently, the reaction was separated on a 3–12% native gradient PAGE gel. The RNA was then transferred to a nylon membrane to detect the mobility-shifted biotinylated TAR RNA using StAV-horseradish peroxidase conjugate. Chemiluminescence was detected using a GBox Chemi chemi-luminometer (Syngene, Fredrick, MD, USA).

HIV-1AD8 (R5-tropic) = test: HIV-1 replication assay in PBMCs (p24), HIV-1AD8; format: cell-based; conditions: PHA-preactivated PBMCs, MOI 0.1, 72 h; 460-G06 at 12.5-100 nM
Method: as §3, §4

TZM-bl cells = test: in vitro; conditions: TZM-bl cells
Method: as §1
as §2, with “Subsequently, the cells were infected with HIV-1NL4-3 virus obtained from the transfection of 293T cells at a multiplicity of infection (MOI) of 1.” left out, “Briefly, 4 × 10^5 PBMCs pre-activated with phytohemagglutinin M (PHA-M) were washed with fresh media and then infected with HIV-1NL4-3 or HIV-1AD8 at an MOI of 0.1 by spinoculation for 2 h.” left out, “The data are presented as relative percentages compared to the DMSO control (vehicle). The experiments were performed in triplicate.” left out

[2] = system: Tat (ARM)-TAR RNA interaction; conditions: 10-fold excess competitor, 50 nM analytes
Method: To test whether our assay is applicable for screening specific inhibitors of the Tat-TAR RNA interaction, inhibition assays were performed with known inhibitors of the Tat-TAR RNA interaction. […] A dose–response competition assay was conducted at inhibitor concentrations of 0–100 μM to determine their inhibitory curves in our assay. […] Additionally, a dose-responsive competition assay using RNA fragments was performed to validate the specificity of the assay.
Data are expressed as the mean ± SD (n = 3) compared to a control lacking an RNA competitor.
The indicated concentrations of ARM and Cy5-TAR RNA fragments were incubated in 20 μL of 1× LANCE ultra assay buffer in 384-well microtiter plates with or without inhibitor (competitor) for 30 min at 20 °C in the dark. […] The reaction was performed in a final volume of 25 μL. Small volumes of the reaction solution were added automatically using Assist-Plus (Integra Bioscience, Zisers, Switzerland). After adding all the assay components, the plates were sealed with a clear cover. The ARM-TAR RNA interaction signal was measured in an EnSight multimode plate reader (PerkinElmer) using the LANCE protocol of the time-resolved fluorescence (TRF) mode in the Kaleido software (PerkinElmer), according to the manufacturer’s protocol. Briefly, the excitation light was directed to the donor (Eu) from the Xenon flash lamp at 320 nm selected by an optical filter, and then, an integration time of 100 μs and a delay time of 70 μs were provided to remove short-lived background signals; subsequently, two emission lights were detected at 615 nm for the donor (Eu) and 665 nm for the acceptor (Cy5). The TRF was measured from the top using an excitation filter and emission monochromators in a single measurement mode. The TR-FRET output signal was expressed as the emission ratio of acceptor/donor (665/615 nm × 1000) fluorescence counts. The fold activity of the TR-FRET signal for ARM-TAR RNA interaction was calculated compared to the control reaction lacking the ARM peptide.

[3] = TZM-bl cells, HIV-1NL4-3 MOI 1, 24 h, 0-12.5 μM
[4] = bl-DTR cells, Dox 50 ng/mL, 24 h, F-Luc, 0-12.5 μM

Compound	dose response of Tat activity (F-Luc), in words ([1]; 0-12.5 μM, bl-DTR cells)	IC50 (HIV-1NL4-3; [3]) [µM]	IC50 [1, 4] [µM]	further results
Cc1nn2c(nc(NC3CCCN(C)C3)c3ccccc32)c1Cl (centres unmarked) [Hit 463-H08, 3-chloro-2-methyl-N-(1-methylpiperidin-3-yl)pyrazolo[1,5-a]quinazolin-5-amine]	gradual inhibition of F-Luc activity			IC50 (HIV-1NL4-3; Human immunodeficiency virus 1, TZM-bl, 24 h): 8.05 ± 0.488 µM; SI (selectivity index) (HIV-1NL4-3; TZM-bl cells): >1.552; IC50 ([1]; Human immunodeficiency virus 1, 24 h): 2.37 ± 0.16 µM; inhibition of viral replication, in words (HIV-1NL4-3 (X4-tropic)): less inhibitory effect on viral replication; Kd (TAR RNA): ~1000 µM; dissociation of ARM from TAR RNA, in words (TAR RNA): relatively less dissociation effect; inhibition of viral replication, in words (HIV-1AD8 (R5-tropic)): less inhibitory effect on viral replication
Cc1ccc(-c2csc3ncnc(NCCCc4n[nH]c(N)c4C#N)c23)cc1 [Hit 463-B11, 5-Amino-3-(3-(5-p-tolylthieno[2,3-d]pyrimidin-4-ylamino)propyl)-1H-pyrazole-4-carbonitrile]	gradual dose-responsive inhibitory effect on Tat activity	5.03 ± 0.31	6.82 ± 1.88	
Cc1ccc(Nc2cc3c(n[n+]([O-])n3CCCN3CCCCC3)c3c2C(=O)c2ccccc2C3=O)cc1 [Hit 464-A09, 6,11-Dioxo-3-(3-(piperidin-1-yl)propyl)-5-(p-tolylamino)-6,11-dihydro-3H-anthra[1,2-d][1,2,3]triazole 2-oxide]	gradual dose-responsive inhibitory effect on Tat activity	2.03 ± 0.132	2.27 ± 0.518	inhibitory effect on HIV-1, in words (HIV-1NL4-3; 3.13 μM): strong inhibitory effect; toxicity, in words (TZM-bl cells; 6.25 μM): sudden severe toxicity; CC50 (TZM-bl cells; concentration that reduces cell viability by 50%): 3.36 ± 0.16 µM; inhibitory effect on Tat, in words ([1]; 3.13 μM): strong inhibitory effect
CC(C)C(CNc1nc(-c2ccsc2)nc2ccccc12)N1CCN(C)CC1 (centres unmarked) [Hit 461-H04, N-(3-Methyl-2-(4-methylpiperazin-1-yl)butyl)-2-(thiophen-3-yl)quinazolin-4-amine]	gradual dose-responsive inhibitory effect on Tat activity		10.1 ± 2.73	
O=C(O)C1CCCc2sc(C=Cc3cc(Cl)c4c(c3)OCCO4)nc21 (centres unmarked) [Hit 458-F08, 2-(2-(8-Chloro-2,3-dihydrobenzo[b][1,4]dioxin-6-yl)vinyl)-4,5,6,7-tetrahydrobenzo[d]thiazole-4-carboxylic acid]	gradual dose-responsive inhibitory effect on Tat activity	1.29 ± 0.384		
GISYGDKKDDQEERA [mt ARM]				TR-FRET signal in peptide/protein competition assay, in words [2]: neither mt ARM nor BSA affected their interaction signals
Cc1onc(-c2ccccn2)c1C(=O)Nc1ncc(C2CCNCC2)s1 [Hit 459-G07, 5-Methyl-N-(5-(piperidin-4-yl)thiazol-2-yl)-3-(pyridin-2-yl)isoxazole-4-carboxamide]	gradual dose-responsive inhibitory effect on Tat activity		3.93 ± 0.338	
N=c1n(Cc2ccc(F)cc2F)c2ccccc2n1CC(O)Cn1c(-c2ccc(C(F)(F)F)cc2)noc1=O (centres unmarked) [Hit 460-F06, 4-(3-(3-(2,4-Difluorobenzyl)-2-imino-2,3-dihydro-1H-benzo[d]imidazol-1-yl)-2-hydroxypropyl)-3-(4-(trifluoromethyl)phenyl)-1,2,4-oxadiazol-5(4H)-one]			3.2 ± 0.438	
